# Laboratory results taken from patent US11459340B2, “Tri-substituted heteroaryl derivatives as Src homology-2 phosphatase inhibitors” (Nikang Therapeutics, Inc., priority 2018, dated 2022).
# pIC50: −log10 of the molar value.
# Target: SHP2 (Homo sapiens (Human), UniProt Q06124)
# Test: SHP2 Allosteric Inhibition Assay (DiFMUP substrate, bisphos-IRS1 peptide activation)
# Assay type: biochemical
# Settings: 0.5 μM bisphos-IRS1 peptide, 100 uM DiFMUP, room temperature
# Method: At the basal state, SHP2 is auto-inhibited and access of substrates to the catalytic site is blocked by the […] interactions between the SH2 domains and the PTP domain. When bis-tyrosyl-phosphorylated peptides bind to SH2 domain of SHP2, the PTP domain becomes available for substrate recognition and reaction catalysis and SHP2 is allosterically activated. SHP2 catalytic activity can be measured using a fluorogenic artificial substrate DiFMUP.
# The phosphatase reactions were carried out at room temperature in 384-well black polystyrene plates (Greiner Bio-One, Cat #784076) using assay buffers containing 60 mM HEPES, pH 7.2, 75 mM NaCl, 75 mM KCl, 1 mM EDTA, 0.05% P-20, and 5 mM DTT.
# 0.33 nM of […] was co-incubated with of 0.5 μM of bisphos-IRS 1 peptide (sequence: H2N-LN(pY)IDLDLV(dPEG8)LST(pY)ASINFQK-amide) and various concentrations of compounds for 30-60 min at room temperature. Then the reaction was initiated by addition of the surrogate substrate DiFMUP (Invitrogen, Cat #D6567, 100 uM final).
# The real-time conversion of DiFMUP to DiFMU (6,8-difluoro-7-hydroxyl-4-methyl-coumarin) was measured every 5 min for 30 min using a microplate reader (CLARIOstar, BMG Labtech) with excitation and emission wavelengths of 340 nm and 450 nm, respectively. Initial reaction rates were determined by linear fitting of the data and the inhibitor dose response curves were analyzed using normalized IC50 regression curve fitting with control based normalization.
# Chain of SHP2 (Q06124 whole entry): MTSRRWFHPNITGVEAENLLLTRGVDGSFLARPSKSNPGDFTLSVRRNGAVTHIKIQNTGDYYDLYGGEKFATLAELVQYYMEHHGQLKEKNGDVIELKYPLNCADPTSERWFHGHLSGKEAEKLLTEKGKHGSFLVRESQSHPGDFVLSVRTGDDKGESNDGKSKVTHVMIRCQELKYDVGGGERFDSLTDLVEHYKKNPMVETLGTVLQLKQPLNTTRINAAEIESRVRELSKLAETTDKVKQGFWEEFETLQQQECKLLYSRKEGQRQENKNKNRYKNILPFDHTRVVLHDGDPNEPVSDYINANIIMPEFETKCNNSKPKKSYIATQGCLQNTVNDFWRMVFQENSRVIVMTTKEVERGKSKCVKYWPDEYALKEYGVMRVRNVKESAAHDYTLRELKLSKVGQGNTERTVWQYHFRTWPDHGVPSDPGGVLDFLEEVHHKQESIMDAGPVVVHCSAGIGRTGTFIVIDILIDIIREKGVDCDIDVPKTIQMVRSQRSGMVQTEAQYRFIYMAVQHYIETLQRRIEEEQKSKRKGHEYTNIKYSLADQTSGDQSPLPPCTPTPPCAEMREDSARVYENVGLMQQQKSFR
row,SMILES,pIC50
1,"C[C@@H]1OCC2(CCN(c3ncc(Sc4ccnc5c4OC[C@@H]4C[C@H](O[C@@H]6CCOC6)CN54)nc3CO)CC2)[C@@H]1N [Compound 28, (3-((3S,4S)-4-amino-3-methyl-2-oxa-8-azaspiro[4.5]decan-8-yl)-6-(((6aS,8S)-8-(((R)-tetrahydrofuran-3-yl)oxy)-6a,7,8,9-tetrahydro-6H-pyrido[3,2-b]pyrrolo[1,2-d][1,4]oxazin-4-yl)thio)pyrazin-2-yl)methanol]",7.92
2,"C[C@@H]1OCC2(CCN(c3ncc(Sc4ccnc5c4OC[C@@H]4C[C@H](F)CN54)nc3CO)CC2)[C@@H]1N [Compound 14, (3-((3S,4S)-4-amino-3-methyl-2-oxa-8-azaspiro[4.5]decan-8-yl)-6-(((6aS,8S)-8-fluoro-6a,7,8,9-tetrahydro-6H-pyrido[3,2-b]pyrrolo[1,2-d] [1,4]oxazin-4-yl)thio)pyrazin-2-yl)methanol]",7.89
3,"C[C@@H]1OCC2(CCN(c3ncc(Sc4ccnc5c4OC[C@@H]4C[C@@H](O)CN54)nc3CO)CC2)[C@@H]1N [Compound 19, (6aS,8R)-4-((5-((3S,4S)-4-amino-3-methyl-2-oxa-8-azaspiro[4.5]decan-8-yl)-6-(hydroxymethyl)pyrazin-2-yl)thio)-6a,7,8,9-tetrahydro-6H-pyrido[3,2-b]pyrrolo[1,2-d][1,4]oxazin-8-ol]",8.10
4,"C[C@@H]1OCC2(CCN(c3ncc(Sc4ccnc5c4OC[C@@H]4C[C@@H](F)CN54)nc3CO)CC2)[C@@H]1N [Compound 15, (3-((3S,4S)-4-amino-3-methyl-2-oxa-8-azaspiro[4.5]decan-8-yl)-6-(((6aS,8R)-8-fluoro-6a,7,8,9-tetrahydro-6H-pyrido[3,2-b]pyrrolo[1,2-d] [1,4]oxazin-4-yl)thio)pyrazin-2-yl)methanol]",8.30
5,"C[C@@H]1OCC2(CCN(c3ncc(Sc4ccnc5c4OC[C@@H]4C[C@H](O)CN54)nc3CO)CC2)[C@@H]1N [Compound 18, (6aS,8S)-4-((5-((3S,4S)-4-amino-3-methyl-2-oxa-8-azaspiro[4.5]decan-8-yl)-6-(hydroxymethyl)pyrazin-2-yl)thio)-6a,7,8,9-tetrahydro-6H-pyrido[3,2-b]pyrrolo[1,2-d][1,4] oxazin-8-ol]",8.22
6,"CO[C@H]1C[C@H]2COc3c(Sc4cnc(N5CCC6(CC5)CO[C@@H](C)[C@H]6N)c(CO)n4)ccnc3N2C1 [Compound 16, (3-((3S,4S)-4-amino-3-methyl-2-oxa-8-azaspiro[4.5]decan-8-yl)-6-(((6aS,8S)-8-methoxy-6a,7,8,9-tetrahydro-6H-pyrido[3,2-b]pyrrolo[1,2-d][1,4]oxazin-4-yl)thio)pyrazin-2-yl)methanol]",8.10
